According to patent US4483867A, “Antifibrinolytically active derivatives of tranexamic acid” (KabiVitrum AB, priority 1981, dated 1984):
Structures can show the parent of a compound that is named as a salt.

Columns and labels:
[1] = In vivo test - absorption in rats after oral administration (tranexamic acid recovered in urine); conditions: for Absorption after oral administration, in words: compared to tranexamic acid
Procedure: (§1) In the biological tests described in sections A, B and C below, the test compounds were used in trans form and in the form of hydrochloride salt. The test results given in Tables 1 and 2 are average values.
Rats were chosen to study the absorption after oral administration of compounds of the invention which are esters of tranexamic acid. Absorption of tranexamic acid itself is very poor in rats.
The determination of absorption in the rats was performed in the following way: Male rats in groups of three or four were given the test compound by gavage (1 mmol/kg-0.1 mmol/kg, 2 ml/kg). The urine was collected at the intervals 0-6, 6-24, 24-48 and 48-72 hours. At the end of each interval the cages were rinsed with 20 ml of distilled water, which also was collected and analysed. The urine sampls were then analysed for their content of tranexamic acid by a gaschromatographic method according to Wessman J., Stromberg S., Anal. Chem. 49 (1977) 369. The results are shown in table 1, where the total absorption is given as the molar amount of tranexamic acid which was recovered in the urine samples compared to the amount of administered test compound, also calculated as tranexamic acid.

[2] = test system: fibrinolytic activity induced by porcine tissue activator; assay: Antifibrinolytic activity in chandler loop (inhibition of clot lysis induced by porcine tissue activator); format: biochemical, human blood; porcine tissue activator; conditions: for Percent inhibition of fibrinolytic activity induced by porcine tissue activator: 1 micromole/liter, human blood, 20 PU/ml porcine tissue activator, six hours, mean
Procedure: as §1
The antifibrinolytic properties of tranexamic acid and a number of compounds of the invention were tested in an artificial circulating blood system, the chandler loop (Chandler, A. B., In vitro thrombolytic coagulation of blood. A method for producing a thrombus. Lab.Invest. 7, 110, 1958.) Human blood was mixed with ^125 I-labelled fibrinogen, divided into 1.5 ml portions and filled into plastic tubings. After recalcification the loops were rotated for 24 hours during which ^125 I-labelled clots were formed. Fibrinolysis as measured with release of ^125 I-labelled fibrin degradation products from the clot, was initiated by adding 20 PU/ml of porcine tissue activator to the loops. Clot lysis was followed during six hours and the cumulative release of ^125 I FDP was plotted v.s. time of lysis. […] The effect on the clot lysis of compounds of the invention was tested in this system and compared to the inhibitory effect of tranexamic acid. No significant difference (p>0.05) between the antifibrinolytic effect of tranexamic acid and the tested compounds of the invention was found in this test system.

[3] = large oral intake, about 3 to about 6 grams per 24 hours; cited from earlier work
[4] = normally, clinical use; cited from earlier work
[5] = In vitro test - hydrolysis in human plasma (half life); format: in vitro ADME; conditions: 37° C., 2.3·10^-3 M, trans form, hydrochloride salt, HPLC, UV 210 nm
Description: as §1
(§2) The compounds of the present invention, which are esters of tranexamic acid, are converted to tranexamic acid in vivo either during the absorption through the gastro-intestinal wall or by enzymes present in the blood. In order to test the stability of compounds of the invention the half life in human plasma of a number of compounds of the invention was compared to the half life of the same ester in a phosphate buffer of the same pH. The half life, that is, the time within which the amount of unhydrolysed test compound is reduced by 50%, was calculated from the decrease of intact test compound with time. This decrease of intact test compound was monitored by UV-detection at 210 nm using high performance liquid chromatography (HPLC) in the reversed phase mode with mixtures of methanol and phosphate buffer as eluents. The stability in plasma was studied by addition of […] of plasma thermostated to 37° C. The concentration of the test compound in plasma amounted to 2.3·10^-3 M. The plasma samples were injected directly into the column after filtration. The half life in buffer solution were determined in the same way except that no filtration was needed.

[6] = In vitro test - hydrolysis in phosphate buffer pH 7.5 (half life); format: physicochemical; conditions: trans form, hydrochloride salt, HPLC, UV 210 nm
Description: as §1, §2

Structure (SMILES): CC(C)OC(=O)OC(C)OC(=O)[C@H]1CC[C@H](CN)CC1 (stereo partly drawn) [Example 4, 1-(isopropyloxycarbonyloxy)ethyl trans-4-aminomethylcyclohexanecarboxylate hydrochloride]
- Absorption after oral administration, in words [1]: absorbed to a very high degree
- Percent inhibition of fibrinolytic activity induced by porcine tissue activator [2]: 25.8 ± 5.5%

Structure (SMILES): NC[C@H]1CC[C@H](C(=O)O)CC1 [Tranexamic acid, trans-4-aminomethylcyclohexanecarboxylic acid]
- Undesired side effects, in words [3]: causes in some patients undesired side effects in the gastro-intestinal tract
- Absorption after oral administration, in words [1]: very poor
- dose excreted at 72 h ([1]; rat, po, male rats, by gavage, 1 mmol/kg-0.1 mmol/kg, 2 ml/kg, tranexamic acid recovered in urine 0-72 hours vs. amount administered, trans form, hydrochloride salt, read-out: Absorption Mole % (average values of four tests)): 11 ± 1.4%
- Percent inhibition of fibrinolytic activity induced by porcine tissue activator [2]: 25.6 ± 3.9%
- Antifibrinolytic effect / inhibition of clot lysis, in words ([2]; chandler loop): clot lysis was inhibited in a dose dependent manner
- Absorption of administered tranexamic acid, oral route [4]: 35-40%

Structure (SMILES): CCOC(=O)OC(C)OC(=O)[C@H]1CC[C@H](CN)CC1 (stereo partly drawn) [Example 3, 1-(ethyloxycarbonyloxy)ethyl trans-4-aminomethylcyclohexanecarboxylate hydrochloride]
- half-life at 2300 µM [5]: 1.5 min
- half-life at 2300 µM [6]: 90 h
- Percent inhibition of fibrinolytic activity induced by porcine tissue activator [2]: 23.4 ± 5.1%

Structure (SMILES): CC(=O)OC(C)OC(=O)[C@H]1CC[C@H](CN)CC1 (stereo partly drawn) [Example 5, 1-(acetyloxy) ethyl trans-4-aminomethylcyclohexanecarboxylate]
- half-life at 2300 µM [5]: 9 min
- Percent inhibition of fibrinolytic activity induced by porcine tissue activator [2]: 19.5 ± 4.7%

Structure (SMILES): CC(OC(=O)[C@H]1CC[C@H](CN)CC1)OC(=O)[C@H]1CC[C@H](CN)CC1 [Example 13, 1,1-Ethandiol bis-(trans-4-aminomethylcyclohexanecarboxylate) dihydrochloride]
- half-life at 2300 µM [5]: 11 min
- half-life at 2300 µM [6]: 70 h

Structure (SMILES): CC(C)C(=O)OCOC(=O)[C@H]1CC[C@H](CN)CC1 [Example 6, isobutyryloxymethyl trans-4-aminomethylcyclohexanecarboxylate]
- half-life at 2300 µM [5]: 0.5 min
- Percent inhibition of fibrinolytic activity induced by porcine tissue activator [2]: 32.4 ± 5.3%

Structure (SMILES): CN(C)C(=O)C(OC(=O)[C@H]1CC[C@H](CN)CC1)OC(=O)[C@H]1CC[C@H](CN)CC1 [Example 16, 2,2-dihydroxy-N,N-dimethylacetamide bis-(trans-4-aminomethylcyclohexanecarboxylate)]
- Percent inhibition of fibrinolytic activity induced by porcine tissue activator [2]: 32.2 ± 4.7%

Structure (SMILES): CC(OC(=O)C(C)C)OC(=O)[C@H]1CC[C@H](CN)CC1 (stereo partly drawn) [Example 7, 1-(isobutyryloxy)ethyl trans-4-aminomethylcyclohexanecarboxylate]
- Percent inhibition of fibrinolytic activity induced by porcine tissue activator [2]: 23.8 ± 5.7%

Structure (SMILES): NC[C@H]1CC[C@H](C(=O)OCOC(=O)[C@H]2CC[C@H](CN)CC2)CC1 [Example 11, methandiol bis-(trans-4-aminomethylcyclohexanecarboxylate) dihydrochloride]
- half-life at 2300 µM [5]: 1.5 min
- half-life at 2300 µM [6]: 26 h

Structure (SMILES): CC(C)(C)C(=O)OCOC(=O)[C@H]1CC[C@H](CN)CC1 [Example 1, pivaloyloxymethyl trans-4-aminomethylcyclohexanecarboxylate hydrochloride]
- half-life at 2300 µM [5]: 5 min
- Percent inhibition of fibrinolytic activity induced by porcine tissue activator [2]: 19.3 ± 4.3%
